Laboratory results as given in patent US6924292B2, “Furoisoquinoline derivatives, process for producing the same and use thereof” (Takeda Chemical Industries, Ltd., priority 2000, dated 2005).

Tests used:
[1] = biological target: T1, recombinant human brain-derived phosphodiesterase 4D3 (Homo sapiens, UniProt Q08499); experiment: Assay of phosphodiesterase IV-inhibiting effect (SPA, [3H]cAMP); assay type: biochemical; conditions: recombinant human brain-derived phosphodiesterase 4D3, SPA with [3H]cAMP, 30 minutes at 30° C.; read-out: PDE IV-inhibiting effect (IC50)
T1 construct: GST (N); made in house; host or cells: Escherichia coli BL21 (BL21/pPDE4D3, FERM BP-7075)
Text: Experiment Example 1 Assay of Phosphodiesterase IV-inhibiting Effect
(1) Human Brain-derived Phosphodiesterase 4D3-encoding Gene Cloning
From a human brain cDNA library, a gene encoding phosphodiesterase 4D3 was cloned. […] The resultant PCR product was subjected to an agarose gel electrophoresis and an about 2.4 kb DNA fragment was recovered. This fragment was made blunt using a Pfu DNA polymerase ([…]) and then a phosphodiesterase 4D3 gene was cloned using Zero Blunt PCR Cloning Kit (Invitrogen).
(2) Construction of E.coli Expression Vector
The plasmid obtained in Section (1) described above was digested with a restriction enzyme EcoRI (Takara) and subjected to an agarose gel electrophoresis to recover an about 2.4 kb DNA fragment. […] This cDNA fragment was transformed into an E.coli BL21 (FUNAKOSHI) using a ligation solution, whereby obtaining an Escherichia coli BL21/pPDE4D3 capable of expressing the phosphodiesterase 4D3 gene.
(3) Expression of Recombinant Human Brain-derived Phosphodiesterase 4D3 in Escherichia coli and Purification Thereof
Using the Escherichia coli BL21/pPDE4D3 obtained in Section (2) described above, a recombinant human brain-derived phosphodiesterase 4D3 was obtained. The expression and purification of E. coli were in accordance with the protocol attached to GST Gene Fusion System (Pharmacia).
(4) Assay of Phosphodiesterase IV-inhibiting Effect
To a 96-well plate (OPTI plate, Packard), 10 μl of a buffer solution [0.5 M Tris-HCl (pH7.5), 83 mM MgCl2, 17 mM EGTA], 10 μl of the recombinant human brain-derived phosphodiesterase 4D3 (0.0034 mg/mL) obtained in […] described above, 65 μl of Ultrapure water, 5 μl of an inhibitor sample and 10 μl of [^3H]cAMP were added and reacted for 30 minutes at 30° C. After completing the reaction, 50 μl of SPA beads solution [18 mg/mL Yttrium silicate beads, 18 mM ZnSO4] was added, allowed to stand at room temperature for about 20 minutes, and the radioactivity was counted using a scintillation counter (Topcount, Packard). […] This assay system was employed to determine the recombinant human brain-derived phosphodiesterase-inhibiting effect (IC50) of each inventive compound.

[2] = system: antigen-induced bronchoconstriction; experiment: Inhibiting effect on antigen-induced bronchoconstriction in guinea pigs (modified Konzett-Rossler method); assay type: in vivo; conditions: guinea pig, 1 mg/kg intravenously 5 minutes before the antigen challenge, vs control group
Description: Example 2 Inhibiting Effect on Antigen-induced Bronchoconstriction in Guinea Pigs
(1) Preparation of Rabbit Anti-ovalbumin (OA) Serum
A white rabbit (body weight: about 3 kg; New Zealand white: […] LABES) was immunized by an intramuscular administration of 1.0 mL of an emulsion of 0.5 mL of a 10% OA (Grade III, Sigma) solution and 0.5 mL of Freund Complete Adjuvant (WAKO PURE CHEMICAL […], LTD.). This procedure was conducted once every week repetitively 4 times in total. One week after the final immunization, the whole blood was sampled. The blood sample was allowed to stand at room temperature for 1 hour or longer, and then in a refrigeration room for a day. On the following day, the serum fraction was isolated and centrifuged (3000 rpm, 10 min.), and the supernatant was stored as an antiserum at −20° C.
(2) Antigen-induced Bronchoconstriction
The bronchoconstriction was measured by a modified Konzett-Rossler method. Each male Hartley guinea pig weighing 400 to 500 g (NIPPON SLC, Shizuoka) was anesthetized with ether, treated intravenously with 1.0 mL of a 8- to 16-fold diluted anti-OA serum, and subjected to an experiment after 16 to 24 hours. Under an anesthesia with urethane (1.2 g/kg ip) (Aldrich), a tracheal cannula was inserted, and gallamine triethiodide (1 mg/kg iv) (Sigma) was administered to arrest the spontaneous respiration. The animal was ventilated artificially using an artificial respirator (Harvard model 683) at 70 respirations/minutes, with each ventilation volume of 2 to 3 mL and initial load of 10 cmH2O, and the intratracheal pressure was measured at the side arm of the tracheal cannula using a differential pressure type transducer. Mepyramine maleate (1.0 mg/kg) (Sigma) and propranolol (1.0 mg/kg) (Sigma) were administered intravenously 2 minutes after the administration of gallamine triethiodide, and after further 2 minutes the OA antigen (1.0 mg/kg) was administered intravenously to induce the bronchoconstriction.
A compound of Example was dissolved in 25% dimethylacetamide, 25% polyethylene glycol 400 and 50% physiological saline, and administered intravenously 5 minutes before the antigen challenge at a dose of 1 mg/kg. Percent inhibition was calculated based on the comparison with a control group (intravenous administration of a mixture of 25% dimethylacetamide, 25% polyethylene glycol 400 and 50% physiological saline).

T1 sequence (Q08499 1-673 isoform Q08499-2): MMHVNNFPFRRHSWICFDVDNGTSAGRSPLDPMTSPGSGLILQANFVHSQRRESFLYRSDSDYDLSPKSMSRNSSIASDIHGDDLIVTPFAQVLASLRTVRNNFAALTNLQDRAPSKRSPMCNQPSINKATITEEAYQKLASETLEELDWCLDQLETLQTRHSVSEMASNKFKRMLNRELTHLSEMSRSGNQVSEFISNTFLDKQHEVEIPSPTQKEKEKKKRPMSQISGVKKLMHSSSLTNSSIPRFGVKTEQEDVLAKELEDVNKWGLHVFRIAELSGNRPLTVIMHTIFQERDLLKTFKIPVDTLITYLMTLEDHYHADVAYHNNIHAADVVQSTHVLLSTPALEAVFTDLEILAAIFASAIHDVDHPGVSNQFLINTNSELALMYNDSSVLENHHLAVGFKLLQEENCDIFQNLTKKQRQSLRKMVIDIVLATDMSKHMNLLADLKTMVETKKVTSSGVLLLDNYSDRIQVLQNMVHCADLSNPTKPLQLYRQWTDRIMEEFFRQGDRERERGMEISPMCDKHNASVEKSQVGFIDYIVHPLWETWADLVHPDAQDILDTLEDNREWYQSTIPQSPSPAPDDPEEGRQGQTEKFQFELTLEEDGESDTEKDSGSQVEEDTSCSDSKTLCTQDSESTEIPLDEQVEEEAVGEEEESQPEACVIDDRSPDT

`COc1cc2c(c3c1OC(C)(C)C3)C(c1cccc(NC(=O)C[S+](C)[O-])c1)=NC(C)(C)C2` (centres unmarked) [Example 39, 2-(Methylsulfinyl)-N-[3-(3,4,8,9-tetrahydro-6-methoxy-3,3,8,8-tetramethylfuro[2,3-h]isoquinolin-1-yl)phenyl]acetamide] was tested, and the IC50 [1] was 19.4 nM and the “% inhibition in bronchoconstriction” value [2] was 45%.
`COc1cc2c(c3c1OC(C)(C)C3)C(c1cccc(N(S(C)(=O)=O)S(C)(=O)=O)c1)=NC(C)(C)C2` [Example 45, N-(Methylsulfonyl)-N-[3-(3.4,8,9-tetrahydro-6-methoxy-3,3,8,8-tetramethylfuro[2,3-h]isoquinolin-1-yl)phenyl]methanesulfonamide] was tested, and the IC50 [1] was 9.36 nM and the “% inhibition in bronchoconstriction” value [2] was 44%.
With `COc1cc2c(c3c1OC(C)(C)C3)C(c1cccc(C(=O)NCCc3ccncc3)c1)=NC(C)(C)C2` [Example 149, N-[2-(4-Pyridinyl)ethyl]-3-(3,4.8,9-tetrahydro-6-methoxy-3,3,8,8-tetramethylfuro[2,3-h]isoquinolin-1-yl)benzamide] the IC50 [1] was 40.1 nM and the “% inhibition in bronchoconstriction” value [2] was 58%.
With `COc1cc2c(c3c1OC(C)(C)C3)C(c1cccc(C(=O)NCC(N)=O)c1)=NC(C)(C)C2` [Example 157, N-(2-Amino-2-oxoethyl)-3-(3,4,8,9-tetrahydro-6-methoxy-3,3,8,8-tetramethylfuro[2,3-h]isoquinolin-1-yl)benzamide] the IC50 [1] was 82 nM and the “% inhibition in bronchoconstriction” value [2] was 57%.
For `CNC(=O)c1cccc(C2=NC(C)(C)Cc3cc(OC)c4c(c32)CC(C)(C)O4)c1` [Example 179, N-Methyl-3-(3,4,8,9-tetrahydro-6-methoxy-3,3,8,8-tetramethylfuro[2,3-h]isoquinolin-1-yl)benzamide], the IC50 [1] was 124 nM and the “% inhibition in bronchoconstriction” value [2] was 46%.
`CCNC(=O)c1cccc(C2=NC(C)(C)Cc3cc(OC)c4c(c32)CC(C)(C)O4)c1` [Example 180, N-Ethyl-3-(3,4,8,9-tetrahydro-6-methoxy-3,3,8,8-tetramethylfuro[2,3-h]isoquinolin-1-yl)benzamide] was tested, and the IC50 [1] was 123 nM and the “% inhibition in bronchoconstriction” value [2] was 57%.
With `COc1cc2c(c3c1OC(C)(C)C3)C(c1cccc(-c3cccc(NC(C)=O)c3)c1)=NC(C)(C)C2` [Example 263, N-[3′-(3,4,8,9-Tetrahydro-6-methoxy-3,3,8,8-tetramethylfuro[2,3-h]isoquinolin-1-yl)[1,1′-biphenyl]-3-yl]acetamide] the IC50 [1] was 13.7 nM and the “% inhibition in bronchoconstriction” value [2] was 59%.
